# Source: ChEMBL document CHEMBL4480380, “Identification and biological evaluation of novel benzothiazole derivatives bearing a pyridine-semicarbazone moiety as apoptosis inducers via activation of procaspase-3 to caspase-3” (Medchemcomm, 2019)
# Experiments:
# [1] = tested on: MCF7; assay: Antiproliferative activity against human MCF7 cells after 24 hrs by CCK-8 assay; format: functional, cell-based; conditions: MCF7, 24 h
# [2] = tested on: U-937; assay: Antiproliferative activity against human procaspase-3 over-expressing U937 cells after 24 hrs by CCK-8 assay; format: functional, cell-based; conditions: U-937, 24 h
# [3] = Selectivity ratio of IC50 for human MCF7 cells to IC50 for human procaspase-3 over-expressing U937 cells; format: functional
# [4] = tested on: U-937; assay: Induction of apoptosis in human U937 cells assessed as caspase-3 activity at 30 uM using Ac-DEVD-AFC as substrate preincubated for 16 hrs followed by substrate addition and measured after 60 mins by fluorescence assay (reference value: 7+/- 1%); format: functional
# [5] = Half life in mouse liver microsomes in presence of NADPH by LC-MS analysis; format: ADME, Microsome
# [6] = Intrinsic clearance in mouse liver microsomes in presence of NADPH by LC-MS analysis; format: ADME, Microsome; conditions: read-out: CLH
# [7] = Half life in rat liver microsomes in presence of NADPH by LC-MS analysis; format: ADME, Microsome
# [8] = Intrinsic clearance in human liver microsomes in presence of NADPH by LC-MS analysis; format: ADME, Microsome; conditions: read-out: CLH
# [9] = Intrinsic clearance in rat liver microsomes in presence of NADPH by LC-MS analysis; format: ADME, Microsome; conditions: read-out: CLH
# [10] = Half life in human liver microsomes in presence of NADPH by LC-MS analysis; format: ADME, Microsome
SMILES,IC50 [1],IC50 [2],Ratio IC50 [3],Activity [4],also measured
CC1CCN(Cc2ccc3nc(NC(=O)N/N=C/c4ccccn4)sc3c2)CC1,> 40 µM,21.5 µM,1.6,–,–
CCN(CC)Cc1ccc2nc(NC(=O)NN=C(c3ccccn3)c3ccccn3)sc2c1,> 40 µM,9.1 µM,4.3,119%,–
C/C(=N\NC(=O)Nc1nc2ccc(CN(C)C)cc2s1)c1ccccn1,> 40 µM,20.1 µM,2,68%,–
CC1CCN(Cc2ccc(NC(=O)NN=C(c3ccccn3)c3ccccn3)cc2)CC1,> 40 µM,> 40 µM,–,–,–
CN(C)Cc1ccc(NC(=O)NN=C(c2ccccn2)c2ccccn2)cc1,> 40 µM,> 40 µM,–,–,–
CN(C)Cc1ccc2nc(NC(=O)N/N=C/c3ccccn3)sc2c1,> 40 µM,23.2 µM,1.6,–,–
C=CCc1cccc(/C=N/NC(=O)CN2CCN(Cc3ccccc3)CC2)c1O [PAC-1],> 40 µM,6 µM,6.6,100%,–
CN(C)Cc1ccc2nc(NC(=O)NN=C(c3ccccn3)c3ccccn3)sc2c1,> 40 µM,7.8 µM,5.1,104%,–
CN(C)Cc1ccc(NC(=O)NN=C(c2ccccc2)c2ccccc2)cc1,12.1 µM,> 25 µM,<1,28%,–
CN(C)Cc1ccc(NC(=O)N/N=C/c2ccccn2)cc1,> 40 µM,> 40 µM,–,–,–
C/C(=N\NC(=O)Nc1ccc(CN2CCC(C)CC2)cc1)c1ccccn1,> 40 µM,> 40 µM,–,–,–
CCN(CC)Cc1ccc(NC(=O)N/N=C(\C)c2ccccn2)cc1,> 40 µM,> 40 µM,–,–,–
O=C(c1ccc(F)cc1)C1CCN(CCn2c(=O)[nH]c3ccccc3c2=O)CC1 [KETANSERIN],–,–,–,–,half-life [5]: 20.5 min; CLint scaled [6]: 267 mL/min/kg; half-life [7]: 14.4 min; CLint scaled [8]: 48.2 mL/min/kg; CLint scaled [9]: 173 mL/min/kg; half-life [10]: 36.1 min
CC1CCN(Cc2ccc(NC(=O)NN=C(c3ccccc3)c3ccccc3)cc2)CC1,13.3 µM,> 25 µM,<1,58%,–
